Measured values taken from paper PMC9982066, “Inhibition of Ehrlichia chaffeensis infection by cell-permeable macrocyclic peptides that bind type IV secretion effector Etf-1” (PNAS Nexus, 2023).
Like-named read-outs stand apart in the source and are kept apart here. Starred links: 1 amine or outer side, 2 acyl side, 3 side chain; linkers in the order of their positions; H or OH if unused. Positions of bridges follow the written chain, without caps; N, C: chain ends. Non-standard residues stand in square brackets, D forms with d. Residues, ends and D or L forms follow the SMILES beside them. Trimesoyl = O=C(c1cc(C(=O)[*:2])cc(C(=O)[*:3])c1)[*:1]; Phe(4-Cl) = N[C@@H](Cc1ccc(Cl)cc1)C(=O)O; 2Nal = N[C@@H](Cc1ccc2ccccc2c1)C(=O)O; d2Nal = N[C@H](Cc1ccc2ccccc2c1)C(=O)O; Phg = N[C@H](C(=O)O)c1ccccc1; d(β3hA) = C[C@@H](N)CC(=O)O; Dap = NC[C@H](N)C(=O)O

Tests used:
[1] = biological target: T1, Etf-1 (Ehrlichia chaffeensis, UniProt Q2GG12); assay: biochemical; type: binding; details: for competition for Etf-1 binding: unlabeled competitor peptides vs FAM-B7-133-8
Method: (§1) Fig. 2. Determination of binding affinity of Etf-1-binding peptides by FP assay. […] FAM-labeled peptide (50 nM) was incubated with serially diluted Etf-1 (starting from 25–30 μM in PBS, pH 7.4, supplemented with 5 mM DTT and 0.01% Triton X-100) for 1 h at RT. FP values were measured on a Tecan Infinite M1000 Pro plate reader. Titration curves (n ≥ 3) were fitted using GraphPad Prism and analyzed with TraceDrawer to calculate dissociation constants (KD). […] Data were analyzed using GraphPad Prism and fitted to a four-parameter variable slope equation to determine IC50 values.
Serial dilutions of competitor peptide (0-20 μM) were prepared from DMSO stock solutions into PBS containing 0.01% Triton-X100 and 2 mM TCEP and added to aliquots of the equilibrated Etf-1/probe solution. After incubation for 1 h in the dark and with gentle mixing, 20 μL of each sample was transferred into 384-well black-on-black microplates and FP was measured using a TECAN Infinite M1000 plate reader. Data were analyzed using GraphPad PRISM ver. 8.0 and fit to a four-parameter variable slope equation to determine IC50 values. IC50 values reported are the mean ± SD of n = 2–4 independent experiments.

[2] = serum stability assay (UPLC); type: in vitro ADME; details: 25% (v/v) in DPBS; 25% human serum, 37°C, after 22 h; read-out: degradation
Method: In comparison, the linear peptide Tat (cell-permeable peptide of HIV) was completely degraded within the first 120 min of incubation (Fig. 4B).
Human serum was diluted to 25% (v/v) in sterile DPBS and equilibrated at 37°C for 15 min. Peptides were added to the diluted serum to a final concentration of 20 μM and incubated at 37°C with gentle mixing. At designated time points, 30 μL aliquots were withdrawn and mixed with 30 μL of 15% trichloroacetic acid in MeOH (w/v) and 30 μL of MeCN and stored at 4°C overnight to completely precipitate the serum proteins. Next, each aliquot was centrifuged (15,000g, 5 min, 4°C) and 14 μL of the supernatant was injected in an UPLC equipped with an analytical Waters Acquity UPLC BEH C18 column (1.7 μm, 2.1 mm I.D., 100 mm length) and an inline UV-Vis detector and a single quadrupole mass detector. The column was eluted with a linear gradient of 20–50% MeCN in ddH2O containing 0.1% TFA. A UV/Vis detector at 214 nm and the mass spec quantifying the ion counts corresponding to the [M + 3H]^3+ ion of the analytes were used to analyze the samples. The area under the peak of interest was obtained by integration, normalized to that of the peptide at t = 0, and plotted as a function of the incubation time to determine the serum half-life of the peptide.

[3] = test system: E. chaffeensis; assay: E. chaffeensis infection of THP-1 cells, qPCR of 16S rRNA gene normalized to human actin; type: cell-based, Ehrlichia chaffeensis; details: for inhibition of E. chaffeensis infection: 10 μM, 2 days, vs DMSO control
[4] = test system: THP-1 cells; assay: CellTiter-Glo luminescent cell viability assay; details: 20 μM, 2-day treatment
Excerpt: THP-1 (human promyelocytic leukemia) cells are widely used as E. chaffeensis infection studies of human monocytes in vitro, since initial characterization of infection ([31]).
Fig. 4. Cytotoxicity and proteolytic stability of Etf-1-binding peptides. (A) Effect of Etf-1-binding peptides on the viability of THP-1 cells as determined by CellTiter-Glo luminescent assay. Relative luminescence was plotted as function of the peptide concentration, with the cell viability of DMSO control group set as 100%. (B) Plot of the amount of intact peptide remaining as a function of the incubation time in 25% human serum. All values are normalized to that of peptide at time 0 (100%).
Cytotoxicity of Etf-1-binding peptides was examined by CellTiter-Glo luminescent cell viability assay (Promega, Madison, WI, USA). THP-1 cells were seeded in a transparent 96-well plate at a density of 5 × 10^3 cells/well (100 μL in each well) in RPMI-1640 containing 10% FBS and 1% antibiotics and cultured overnight. Etf-1-binding peptides were serially diluted in DPBS from a DMSO stock and added to the cells with the final concentration of 0–25 μM and a constant final concentration of 0.5% DMSO (v/v). After incubation at 37°C with 5% CO2 for 46 h, the plate was removed and pre-equilibrated to RT before the addition of 100 μL of the CellTiter-Glo 2.0 reagent to each well. The plate was incubated for 15 min on a rotary shaker in the dark, and the luminescence was detected (1-s integration time) on a Tecan Infinite M1000 Pro microplate reader. Relative luminescence was plotted as function of the peptide concentration, with the cell viability of DMSO control group set as 100%.

[5] = test system: E. chaffeensis; assay: morphological examination of E. chaffeensis infection of THP-1 cells by Diff-Quik staining; details: for E. chaffeensis infection (numbers and sizes of morulae): THP-1 cells, Fig. S4 (with Figs. 5, S3)
[6] = LDH release assay (plasma membrane damage); type: cell-based; details: Fig. S2
Method: LDH release assay (Promega) was performed to assess the level of plasma membrane damage in a cell population by these compounds. […] Control wells contained 10 μL of lysis buffer, cell-free complete growth media, or positive LDH control. Following incubation at 37°C and 5% CO2 for 45 to 75 min, the culture was centrifuged and 50 μL of the growth medium was withdrawn from each well, transferred to a clear 96-well plate, mixed with 50 μL of LDH substrate mixture, and incubated at RT for 30 min with gentle mixing. Finally, 50 μL of 1 N HCl was added to each well, and the absorbances at 490 and 680 nm were immediately measured on a Tecan Infinite M1000 plate reader. Relative membrane leakage was calculated and plotted using GraphPad Prism v8.0.

[7] = test system: BECN1 binding to Etf-1; assay: streptavidin magnetic beads pull-down of BECN1 with biotin-Etf-1, Western blot; type: biochemical; details: 10 µM peptide; for BECN1/Etf-1 Ratio: band intensities, DMSO control set as 1, Fig. 8B
Method: Fig. 8.
Streptavidin magnetic beads (15 µL, Pierce, Rockford, IL, USA) were washed with 1 mL of Bind/Wash buffer (25 mM Tris, pH 7.4; 250 mM NaCl, 0.1% Tween 20), and incubated with 0.15 µg ([…] final concentration) of biotinylated full-length Etf-1 protein in bind/wash buffer at 4°C overnight with end-to-end rotation. Beads were washed three times with Bind/Wash buffer, then incubated with Etf-1-binding macrocyclic peptides (10 µM) or DMSO control in Bind/Wash buffer at room temperature for 2 h. […] Beads were washed three times, and proteins were eluted from the beads with 50 µL of 2× SDS-sample buffer. […] Reacting bands were visualized with enhanced chemiluminescence by incubating the membrane with LumiGLO chemiluminescent reagent (Thermo Fisher Scientific). Images were captured by Amersham Imager 680 (GE Healthcare) and densitometry analysis was performed using ImagQuaNT (GE Healthcare). In each specimen, band intensities were normalized against those of actin as the loading control, and the ratios of the treatment group to the control group were calculated with the value in the control groups arbitrarily set as 1.0.

[8] = test system: Etf-1-GFP; assay: mitochondrial localization of ectopically expressed Etf-1-GFP in RF/6A cells; type: cell-based, Ehrlichia chaffeensis; details: 10 μM, 2 days
Method: For mitochondria localization analysis, RF/6A cells were seeded onto a cover glass in a 12-well plate for 3 h, then infected with E. chaffeensis at ∼30 MOI. Alternatively, cells were transfected with Etf-1-GFP or Etf-1-DsRed plasmids using Fugene HD (Promega) or by electroporation at 100 V and 1,000 µF using the Gene Pulser Xcell System (BioRad) according to the manufacturers’ instructions ([16]). […] To examine the roles of macrocyclic peptides on Etf-1 localization on E. chaffeensis inclusions, infected RF/6A cells were treated with 10 μM peptides at 3 h pi for 2 days. At 2 days pi or pt, cells were washed 3 times with PBS, then fixed in 4% PFA for 20 min. Native Etf-1 and mitochondria marker cytochrome C proteins were labeled with rabbit anti-Etf-1 IgG and mouse anti-cytochrome C, then with AF488-conjugated goat anti-rabbit and anti-mouse secondary antibodies in PGS (PBS with 0.1% gelatin and 0.1% saponin) for 1 h each at RT. Host-cell and Ehrlichial DNAs were stained with 300 nM DAPI, and fluorescence with differential interference contrast images were observed and captured with a DeltaVision deconvolution microscope (Applied Precision, Issaquah, WA, USA). Percentages of Etf-1 protein colocalization with macrocyclic peptides or E. chaffeensis inclusions were quantified by counting 10–20 cells per group from three independent experiments.

[9] = biological target: T1, Etf-1; assay: FP assay of Etf-1 binding with FAM-labeled peptides
Method: The peptides were labeled at their C-terminus with carboxyfluorescein (FAM) through a β-Ala-β-Ala-Lys linker and evaluated for binding to Etf-1 by using a fluorescence polarization (FP) assay. […] This outcome is not unexpected, as screening OBOC libraries is often complicated by false positives, due to the presence of high ligand densities on library beads ([28]).
as §1
Etf-1 and macrocyclic peptides were serially diluted in PBS supplemented with 5 mM DTT and 0.01% Triton X-100 (v/v). FAM-labeled peptides (50 nM) were prepared from a 10-μM DMSO stock and incubated with serially diluted Etf-1 for 1 h at room temperature (RT). Twenty microliters of the solutions were transferred to a black 384-well plate (Greiner Bio-One) and FP values were measured on a Tecan Infinite M1000 Pro plate reader with excitation and emission wavelengths at 470 and 535 nm, respectively. Titration curves (n ≥ 3) were fitted using GraphPad Prism v8.0 (GraphPad, La Jolla, CA, USA), and analyzed with TraceDrawer software v1.8 (Ridgeview Instruments AB, Uppsala, Sweden) to calculate the dissociation constant (KD, in nM).

T1 sequence (Q2GG12 entry or part of it): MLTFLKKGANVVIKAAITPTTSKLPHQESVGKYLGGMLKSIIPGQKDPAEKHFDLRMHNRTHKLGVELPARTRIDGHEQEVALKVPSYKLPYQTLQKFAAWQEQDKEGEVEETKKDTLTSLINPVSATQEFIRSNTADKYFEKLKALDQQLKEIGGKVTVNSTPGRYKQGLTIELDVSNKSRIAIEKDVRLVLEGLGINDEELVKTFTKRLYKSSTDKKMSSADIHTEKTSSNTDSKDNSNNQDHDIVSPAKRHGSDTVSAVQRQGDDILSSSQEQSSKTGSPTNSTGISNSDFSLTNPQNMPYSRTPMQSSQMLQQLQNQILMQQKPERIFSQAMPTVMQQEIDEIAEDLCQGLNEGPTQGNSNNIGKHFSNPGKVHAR

| Structure (SMILES) | competition for Etf-1 binding [1] | metabolised at 22 h, 20 µM [2] | inhibition of E. chaffeensis infection [3] | cell viability [4] | E. chaffeensis infection (numbers and sizes of morulae) [5] | cytotoxicity (cell lysis in treated groups) ([5]; THP-1 host cells) | release of lactate dehydrogenase (LDH) [6] | IC50 [1] | dose dependence of inhibition of E. chaffeensis infection ([3]; 1, 5, and 10 μM) | inhibition of E. chaffeensis infection compared with peptide B7 (or B7-16) ([3]; THP-1 cells) | disruption of BECN1 binding to Etf-1 ([7]; compared to DMSO control) | BECN1/Etf-1 Ratio [7] | cytotoxicity (cell lysis in treated groups) [5] | effect on mitochondrial localization of Etf-1-GFP [8] | Kd [9] |
| --- | --- | --- | --- | --- | --- | --- | --- | --- | --- | --- | --- | --- | --- | --- | --- |
| CC(C)C[C@H]1NC(=O)[C@H](c2ccccc2)NC(=O)[C@H](CO)NC(=O)[C@@H](Cc2ccc3ccccc3c2)NC(=O)[C@@H](CC(N)=O)NC(=O)[C@H](Cc2ccc(O)cc2)NC(=O)c2cc3cc(c2)C(=O)NC[C@H](NC(=O)[C@@H](CC(C)C)NC1=O)C(=O)N[C@@H](Cc1ccc(Cl)cc1)C(=O)N[C@H](Cc1ccc2ccccc2c1)C(=O)N[C@H](CCCNC(=N)N)C(=O)N[C@@H](CCCNC(=N)N)C(=O)N[C@H](CCCNC(=N)N)C(=O)N[C@@H](CCCNC(=N)N)C(=O)N[C@H](C(N)=O)CNC3=O [Peptide B7-131-1, TMA-Tyr-asn-nal-Ser-Phg-leu-leu-Dap-4-ClPhe-nal-arg-Arg-arg-Arg-Dap] (Y[dN][d2Nal]S[Phg][dL][dL][Dap][Phe(4-Cl)][d2Nal][dR]R[dR]R[Dap]-NH2; linker N-8-15 via Trimesoyl) | Competition for Etf-1 binding was observed | < 20% | significantly inhibited | greater loss of cell viability | significantly inhibited | certain degrees of cytotoxicity | significant release of lactate dehydrogenase | – | – | – | – | – | – | – | – |
| CC(C)C[C@H]1NC(=O)[C@H]2CCCN2C(=O)C[C@@H](C)NC(=O)[C@H](CCC(N)=O)NC(=O)[C@@H](Cc2ccc3ccccc3c2)NC(=O)[C@H](Cc2ccc(O)cc2)NC(=O)c2cc3cc(c2)C(=O)NC[C@H](NC1=O)C(=O)N[C@@H](Cc1ccc(Cl)cc1)C(=O)N[C@H](Cc1ccc2ccccc2c1)C(=O)N[C@H](CCCNC(=N)N)C(=O)N[C@@H](CCCNC(=N)N)C(=O)N[C@H](CCCNC(=N)N)C(=O)N[C@@H](CCCNC(=N)N)C(=O)N[C@H](C(N)=O)CNC3=O [Peptide B7-133-8, TMA-Tyr-nal-Gln-homoAla-pro-leu-Dap-4-ClPhe-nal-arg-Arg-arg-Arg-Dap] (Y[d2Nal]Q[d(β3hA)][dP][dL][Dap][Phe(4-Cl)][d2Nal][dR]R[dR]R[Dap]-NH2; linker N-7-14 via Trimesoyl) | Competition for Etf-1 binding was observed | < 20% | significantly inhibited | – | significantly inhibited | – | significant release of lactate dehydrogenase | 110 ± 20 nM | dose-dependent manner | significantly more potent inhibition | disrupted BECN1 binding to Etf-1 | 0.19 | certain degrees of cytotoxicity | – | – |
| C[C@H]1NC(=O)[C@H](CO)NC(=O)[C@@H](CCC(=O)O)NC(=O)c2cc3cc(c2)C(=O)NC[C@H](NC(=O)[C@H](CO)NC(=O)[C@H](Cc2c[nH]cn2)NC(=O)[C@@H](Cc2ccccc2)NC1=O)C(=O)N[C@H](Cc1ccccc1)C(=O)N[C@@H](Cc1ccc2ccccc2c1)C(=O)N[C@@H](CCCNC(=N)N)C(=O)N[C@H](CCCNC(=N)N)C(=O)N[C@@H](CCCNC(=N)N)C(=O)N[C@H](CCCNC(=N)N)C(=O)N[C@H](C(N)=O)CNC3=O [Peptide C17, TMA-glu-Ser-ala-phe-His-Ser-Dap-phe-Nal-Arg-arg-Arg-arg-Dap] ([dE]S[dA][dF]HS[Dap][dF][2Nal]R[dR]R[dR][Dap]-NH2; linker N-7-14 via Trimesoyl) | – | – | no effect | – | did not inhibit | – | – | – | – | – | – | 1.17 | – | neither peptide B7 nor C17 affected mitochondrial localization | > 25000 nM |
